Measurements as given in US11219613B2, “Pharmaceutical composition for preventing and treating liver diseases, containing, as active ingredient, cromolyn or pharmaceutically acceptable salt thereof” (ONCOCROSS CO., LTD., priority 2015, dated 2022).
Read-outs that look alike come from different tables or passages of the source.

Experiments:
HSC-T6 cell line [1] = assay: MTT assay, cell proliferation; format: cell-based; details: for effect on proliferation at low level: HSC-T6, 0.1 μM; for proliferation activity: HSC-T6, increasing levels, compared to untreated control
Method: (§1) To confirm the proliferation activity on hepatic stellate cells, a MTT (3-(4,5-dimethylthiazol-2-yl)-2,5-diphenyltetrazolium bromide) assay was performed, and the HSC-T6 and LX2 cell lines obtained from <Example 1> above were used as hepatic stellate cells.
(§2) Specifically, the MTT assay was performed by seeding the cell suspensions of each cell onto a 96-well plate at a density of 5×10^4 cells/well. Then, the MIT stock solution (5 mg/mL) in which MTT was dissolved in PBS (phosphate-buffered saline, pH 7.2) was prepared, and 15 μL of the MTT solution was added to each well after filtration. After culturing for 4 hours at 37° C. and 5% CO2, the reaction was terminated by adding 185 μL of solubilization solution to each well, and then the cell viability was measured at an absorbance of 620 nm using an ELISA (enzyme-linked immunosorbent assay) reader. Furthermore, cell viability was measured by calculating the ratio of absorbance of the cells treated/untreated with the candidate agents.

LX2 cell line = assay: MTT assay, cell proliferation; format: cell-based; details: for effect on proliferation at low level: LX2, 0.1 μM; for proliferation activity: LX2, increasing levels, compared to untreated control
Method: as §1, §2

HSC-T6 cell line [2] = system: HSC-T6 cell line
Method: (§3) Specifically, while gradually increasing the amounts of cromolyn and ionomycin in an independent cell culture medium, the amount of LDH released into the above culture medium was measured, and the experiment was conducted by using a LDH cytotoxicity assay kit (Cayman Chemical, USA) according to the method provided by the manufacturer. First, the cells were grown in DMEM (Dulbecco's Modified Eagle Medium), to which 10% of heat inactivated fetal bovine serum and 1% of penicillin and streptomycin were added, at 37° C. and 5% CO2. Then, the above cells were seeded in a 96-well plate at a density of 2×10^4/well. Cromolyn and ionomycin were added thereto in increasing amounts. After 48 hours, 100 μL of the supernatant from each well was transferred to the new plates, 100 μL of the reaction solution was added to each well, the plate was incubated with gentle shaking on an orbital shaker for 30 minutes at the room temperature, and then the absorbance was measured at 490 nm with a plate reader.

LX-2 cell line [3] = system: LX-2 cell line
Method: as §3

HSC-T6 cell line [4] = assay: Sirius Red total collagen detection; format: cell-based; details: HSC-T6, increasing level, 48 hours
Method: (§4) To confirm whether cromolyn inhibits the production of TGF-β and the accumulation of collagen, which are known as the major secretion marker of activated HSCs, LX-2 and HCT-T6 cell lines were analyzed by ELISA. Specifically, collagen was detected by using the Sirius Red Total Collagen Detection Kit (Chondrex, USA). The suspended cells were seeded in a 24-well plate at a density of 1×10^4 cells/well, and treated with various amounts of cromolyn for 48 hours. Then, the diluted solutions or standard samples were added to 1.5-mL centrifuge tubes in duplicate. Subsequently, each tube was incubated for 20 minutes at room temperature together with 500 μl of the Sirius Red solution. The supernatant was removed, the tubes were washed twice, and 200 μL of the final supernatant was transferred to a 96-well plate. The optical density was measured at 510-550 nm.

LX-2 cell line [5] = assay: Sirius Red total collagen detection; format: cell-based; details: LX-2, increasing level, 48 hours
Method: as §4

HSC-T6 cell line [6] = assay: TGF-β production by ELISA; format: cell-based; details: HSC-T6, different concentrations
Method: (§5) To confirm whether cromolyn inhibits the production of TGF-β and the accumulation of collagen, which are known as the major secretion marker of activated HSCs, LX-2 and HCT-T6 cell lines were analyzed by ELISA.

LX-2 cell line [7] = assay: TGF-β production by ELISA; format: cell-based; details: LX-2, different concentrations
Method: as §5

primary hepatocytes [8] = assay: wound assay, cell motility; format: cell-based, mouse
Method: (§6) Further, the experiment on hepatocytes was conducted by isolating the primary hepatocyte from the liver of a male C57BL6 mouse of around 6 weeks old.
The effect of cromolyn on restoration in hepatocytes was verified. […] Therefore, the present inventors confirmed the motility of primary hepatocytes by treating cromolyn in the presence and absence of TGF-β, which induces EMT.
(§7) Specifically, cell motility according to treatment with cromolyn was analyzed by using the known wound assay in the presence and absence of TGF-β (2 ng/mL), and the healing distance of the wound was measured by […]. Further, after treating with TGF-β and cromolyn, changes in the E-cadherin expression was verified, which was confirmed by treating primary hepatocytes with TGF-β (Carl Bio Chem, USA) and then conducting Western Blots using the antibody against E-cadherin (H-180) (Santa Cruz, USA). In addition, tubulin was used as the loading control.

[9] = system: E-cadherin in primary hepatocytes; assay: E-cadherin expression by Western Blots; format: cell-based, mouse; details: primary hepatocytes treated with TGF-β
Method: as §6, §7

primary hepatocytes [10] = assay: SA-β-gal (Senescence β-galactosidase) staining; format: cell-based, mouse; details: three days in vitro culture
Method: as §6
Since senescence is a typical phenomenon of fibrosis, the anti-senescence effect of cromolyn on hepatocytes was confirmed by using β-galactosidase staining, which is a senescence index.
SA-β-gal (Senescence β-galactosidase) staining was performed by using the Senescence β-Galactosidase Staining Kit (Biovision, USA) according to the method provided by the manufacturer. Specifically, after washing with PBS, the cells were fixed by 2% formaldehyde and 0.2% glutaraldehyde in PBS for 15 minutes at room temperature. The fixed cells were washed with PBS, and incubated together with X-gal staining solution for 24 hours at 37° C. The cells were visualized, and photographs were taken with the Zeiss PALM laser capture microdissection microscope (Zeiss, Germany).

Row | SMILES | effect on proliferation at low level (HSC-T6 cell line [1]) | proliferation activity (HSC-T6 cell line [1]) | effect on proliferation at low level (LX2 cell line) | proliferation activity (LX2 cell line) | cytotoxicity (LDH release) (HSC-T6 cell line [2]; rat, 48 h) | cytotoxicity (LDH release) (LX-2 cell line [3]; human, 48 h) | released collagen (HSC-T6 cell line [4]) | released collagen (LX-2 cell line [5]) | production of TGF-β (HSC-T6 cell line [6]) | production of TGF-β (LX-2 cell line [7]) | motility of hepatocytes (primary hepatocytes [8]; absence of TGF-β, compared to untreated control) | inhibition of migration activity of hepatocytes in terms of migration distance (primary hepatocytes [8]; presence of TGF-β (2 ng/mL), 48 hours) [%] | expression of E-cadherin [9] | number of β-galactosidase-positive cells (primary hepatocytes [10]) | cytotoxicity (LDH release) (HSC-T6 cell line [2]; HSC-T6, increasing amounts, 48 hours (FIG. 2C)) | cytotoxicity (LDH release) (LX-2 cell line [3]; LX-2, increasing amounts, 48 hours (FIG. 2D))
1 | O=C(O)c1cc(=O)c2c(OCC(O)COc3cccc4oc(C(=O)O)cc(=O)c34)cccc2o1 [cromolyn, cromoglicic acid] | did not show a significant effect | decrease | anti-proliferation effect was confirmed | decrease | no cytotoxicity except at the high level (10 μM) | no cytotoxicity except at the high level (10 μM) | significantly decreases | significantly decreases | inhibit the production of TGF-β in a concentration-dependent manner | inhibit the production of TGF-β in a concentration-dependent manner | did not show a significant difference | 15 | significantly inhibit the decrease in the expression of E-cadherin in a concentration-dependent manner | decrease in a concentration-dependent manner |  | 
2 | C[C@H](CCC(=O)O)C[C@H](C)C[C@H](C)C(=O)/C=C(\O)[C@H](C)C[C@H](C)C/C=C/[C@@H](C)[C@@H](O)[C@@H](C)[C@@H](O)C[C@@H]1CC[C@@](C)([C@H]2CC[C@@](C)([C@@H](C)O)O2)O1 [ionomycin] | did not show a significant effect | decrease | anti-proliferation effect was confirmed | decrease |  |  |  |  |  |  |  |  |  |  | induce cell death in a concentration dependent manner | induce cell death in a concentration dependent manner
